# Experimental data: PMC12519771 (BMC Cancer, 2025)
# Experiments:
# [1] = cited from earlier work
# [2] = Adverse events (CTCAE v5.0), safety analysis set
# Protocol: Adverse events were recorded continuously until 30 (± 7) days after discontinuation of study treatment and graded using the National Cancer Institute Common Terminology Criteria for Adverse Events v5.0.
# [3] = human, in vivo, po, 480 mg
# Text: After completion of Part A, patients continued to Part B of the study. […] Treatment with paclitaxel continued for at least six cycles unless the patient experienced unacceptable paclitaxel-related toxicity or disease progression.
# For patients with dose interruption in Cycle 2 before Week 2 Day 5, sample collection could be postponed to Week 2 Day 5 of the subsequent or later cycle, providing there was no dose interruption before Week 2 Day 5 of that cycle.
# [4] = oral administration, Western and Japanese patients
# [5] = related to capivasertib only per investigator, N = 16
smiles,measurement,setting,value
"NC1(C(=O)N[C@@H](CCO)c2ccc(Cl)cc2)CCN(c2nc[nH]c3nccc2-3)CC1 [Capivasertib, capivasertib]",dose proportionality of plasma exposure (AUC over the dosing interval and Cmax),[1]; doses ranging from 80 mg to 800 mg,approximately dose-proportional
same,median tmax,[1]; [4],1 to 2 h
same,terminal elimination half-life (t½λz),[1]; [4],approximately 10 h
same,patients with adverse events leading to dose interruptions of capivasertib,[2]; N = 16,87.5%
same,patients with adverse events leading to dose reductions of capivasertib,[2]; N = 16,31.3%
same,"Anaemia, Grade ≥3",[2]; [5],0 n (%)
same,"Anaemia, any grade",[2]; [5],4 (25.0) n (%)
same,"Any adverse event, Grade ≥3",[2]; [5],9 (56.3) n (%)
same,"Any adverse event, any grade",[2]; [5],16 (100.0) n (%)
same,"Aspartate aminotransferase increased, Grade ≥3",[2]; [5],0 n (%)
same,"Aspartate aminotransferase increased, any grade",[2]; [5],1 (6.3) n (%)
same,"Blood albumin decreased, Grade ≥3",[2]; [5],0 n (%)
same,"Blood albumin decreased, any grade",[2]; [5],1 (6.3) n (%)
same,"Blood bilirubin increased, Grade ≥3",[2]; [5],0 n (%)
same,"Blood bilirubin increased, any grade",[2]; [5],2 (12.5) n (%)
same,"Blood creatinine increased, Grade ≥3",[2]; [5],0 n (%)
same,"Blood creatinine increased, any grade",[2]; [5],2 (12.5) n (%)
same,"Blood triglycerides increased, Grade ≥3",[2]; [5],0 n (%)
same,"Blood triglycerides increased, any grade",[2]; [5],0 n (%)
same,"Blood uric acid increased, Grade ≥3",[2]; [5],0 n (%)
same,"Blood uric acid increased, any grade",[2]; [5],1 (6.3) n (%)
same,"Diarrhoea, Grade ≥3",[2]; [5],0 n (%)
same,"Diarrhoea, any grade",[2]; [5],11 (68.8) n (%)
same,"Glycosylated haemoglobin increased, Grade ≥3",[2]; [5],0 n (%)
same,"Glycosylated haemoglobin increased, any grade",[2]; [5],0 n (%)
same,"Hyperglycaemia, Grade ≥3",[2]; [5],2 (12.5) n (%)
same,"Hyperglycaemia, any grade",[2]; [5],15 (93.8) n (%)
same,"Hypoalbuminaemia, Grade ≥3",[2]; [5],0 n (%)
same,"Hypoalbuminaemia, any grade",[2]; [5],4 (25.0) n (%)
same,"Hypocalcaemia, Grade ≥3",[2]; [5],0 n (%)
same,"Hypocalcaemia, any grade",[2]; [5],1 (6.3) n (%)
same,"Hypokalaemia, Grade ≥3",[2]; [5],0 n (%)
same,"Hypokalaemia, any grade",[2]; [5],1 (6.3) n (%)
same,"Hypomagnesaemia, Grade ≥3",[2]; [5],0 n (%)
same,"Hypomagnesaemia, any grade",[2]; [5],4 (25.0) n (%)
same,"Hyponatraemia, Grade ≥3",[2]; [5],0 n (%)
same,"Hyponatraemia, any grade",[2]; [5],5 (31.3) n (%)
same,"Hypophosphataemia, Grade ≥3",[2]; [5],0 n (%)
same,"Hypophosphataemia, any grade",[2]; [5],0 n (%)
same,"Nausea, Grade ≥3",[2]; [5],0 n (%)
same,"Nausea, any grade",[2]; [5],2 (12.5) n (%)
same,"Neutrophil count decreased, Grade ≥3",[2]; [5],0 n (%)
same,"Neutrophil count decreased, any grade",[2]; [5],1 (6.3) n (%)
same,"Oedema peripheral, Grade ≥3",[2]; [5],0 n (%)
same,"Oedema peripheral, any grade",[2]; [5],1 (6.3) n (%)
same,"Peripheral sensory neuropathy, Grade ≥3",[2]; [5],0 n (%)
same,"Peripheral sensory neuropathy, any grade",[2]; [5],0 n (%)
same,"Platelet count decreased, Grade ≥3",[2]; [5],0 n (%)
same,"Platelet count decreased, any grade",[2]; [5],1 (6.3) n (%)
same,"Proteinuria, Grade ≥3",[2]; [5],0 n (%)
same,"Proteinuria, any grade",[2]; [5],5 (31.3) n (%)
same,"Pyrexia, Grade ≥3",[2]; [5],0 n (%)
same,"Pyrexia, any grade",[2]; [5],6 (37.5) n (%)
same,"Rash (group term), Grade ≥3",[2]; [5],5 (31.3) n (%)
same,"Rash (group term), any grade",[2]; [5],10 (62.5) n (%)
same,"Stomatitis, Grade ≥3",[2]; [5],0 n (%)
same,"Stomatitis, any grade",[2]; [5],1 (6.3) n (%)
same,"Vomiting, Grade ≥3",[2]; [5],0 n (%)
same,"Vomiting, any grade",[2]; [5],1 (6.3) n (%)
same,"Weight decreased, Grade ≥3",[2]; [5],0 n (%)
same,"Weight decreased, any grade",[2]; [5],0 n (%)
same,"White blood cell count decreased, Grade ≥3",[2]; [5],1 (6.3) n (%)
same,"White blood cell count decreased, any grade",[2]; [5],2 (12.5) n (%)
same,"AUC(0–12), gMean gCV %",[3],5630 62.2 h×ng/mL
same,"AUC(0–48), gMean gCV %",[3],7244 58.8 h×ng/mL
same,"AUCinf, gMean gCV %",[3],7397 58.7 h×ng/mL
same,"CL/F, gMean gCV %",[3],64.9 L/h
same,"tmax, median (range)",[3],1.0 h
CC(=O)O[C@H]1C(=O)[C@@]2(C)[C@H]([C@H](OC(=O)c3ccccc3)[C@]3(O)C[C@H](OC(=O)[C@H](O)[C@@H](NC(=O)c4ccccc4)c4ccccc4)C(C)=C1C3(C)C)[C@]1(OC(C)=O)CO[C@@H]1C[C@@H]2O [paclitaxel],patients with adverse events leading to dose interruptions of paclitaxel,"[2]; human, in vivo",75.0%
same,patients with adverse events leading to dose reductions of paclitaxel,"[2]; human, in vivo",31.3%
